In brackets after ≈: the same amount, converted by molar mass.
Tests used:
Enterobacter cloacae [1] = experiment: Antimicrobial activity against carbapenem-resistant Enterobacter cloacae NJ91 deficient in CTX-M-14, ompC/F by CLSI method; format: functional
Escherichia coli [2] = experiment: Antimicrobial activity against Escherichia coli C600 transconjugant XJ81T expressing TEM-1, SHV-12, aac(6')-Ib by CLSI method
Escherichia coli [3] = experiment: Antimicrobial activity against Escherichia coli C600 transconjugant GZ66T expressing SHV-11, DHA-1 by CLSI method
Escherichia coli [4] = experiment: Antimicrobial activity against Escherichia coli C600 transconjugant WH77T expressing IMP-4, TEM-1, CTX-M-3, qnrS1 by CLSI method
Citrobacter freundii = experiment: Antimicrobial activity against Citrobacter freundii RJ78 expressing CMY-2, qnrA1, aac(6')-Ib-cr, ompC by CLSI method; format: functional
Klebsiella pneumoniae [5] = experiment: Antimicrobial activity against carbapenem-resistant Klebsiella pneumoniae FZ49 deficient in IMP-8, TEM-1, SHV-11, CTX-M-14, qnrB2, aac(6')-Ib, ompK35/36 by CLSI method; format: functional
Enterobacter cloacae [6] = experiment: Antimicrobial activity against carbapenem-resistant Enterobacter cloacae NJ89 deficient in CTX-M-14, ompC/F by CLSI method; format: functional
Klebsiella aerogenes [7] = experiment: Antimicrobial activity against Enterobacter aerogenes PU41T expressing CTX-M-14, DHA-1, qnrS1 by CLSI method; format: functional
Escherichia coli [8] = experiment: Antimicrobial activity against Escherichia coli PU60T expressing CMY-2 by CLSI method; format: functional
Escherichia coli [9] = experiment: Antimicrobial activity against Escherichia coli ZJ86T expressing KPC-2 by CLSI method; format: functional
Escherichia coli [10] = experiment: Antimicrobial activity against Escherichia coli ZJ87T expressing KPC-2 by CLSI method; format: functional
Klebsiella pneumoniae [11] = experiment: Antimicrobial activity against Klebsiella pneumoniae ZJ99 expressing KPC-2, CTX-M-3, qnrS1, ompK35 DE by CLSI method; format: functional
Klebsiella pneumoniae [12] = experiment: Antimicrobial activity against Klebsiella pneumoniae ZJ70T expressing KPC-2 by CLSI method; format: functional
Klebsiella pneumoniae [13] = experiment: Antimicrobial activity against carbapenem-resistant Klebsiella pneumoniae ZJ18 deficient in KPC-2, SHV-28, DHA-1, ompK35 by CLSI method; format: functional
Escherichia coli [14] = experiment: Antimicrobial activity against Escherichia coli PU101T expressing CMY-2 by CLSI method; format: functional
Escherichia coli [15] = experiment: Antimicrobial activity against Escherichia coli ZJ87 expressing KPC-2, TEM-1, ompC by CLSI method; format: functional
Klebsiella pneumoniae [16] = experiment: Antimicrobial activity against carbapenem-resistant Klebsiella pneumoniae PU8 deficient in SHV-11, DHA-1, aac(6')-Ib-cr, ompK35/36 by CLSI method; format: functional
Klebsiella pneumoniae [17] = experiment: Antimicrobial activity against Klebsiella pneumoniae ZJ71T expressing KPC-2 by CLSI method; format: functional
Klebsiella pneumoniae [18] = experiment: Antimicrobial activity against carbapenem-resistant Klebsiella pneumoniae XJ81 deficient in TEM-1, SHV-12, DHA-1, aac(6')-Ib, ompK35/36 by CLSI method; format: functional
Klebsiella pneumoniae [19] = experiment: Antimicrobial activity against carbapenem-resistant Klebsiella pneumoniae CY75 deficient in SHV-11, DHA-1, ompK35/36 by CLSI method; format: functional
Escherichia coli [20] = experiment: Antimicrobial activity against carbapenem-resistant Escherichia coli PU101 deficient in TEM-1, CTX-M-14, CMY-2, ompC by CLSI method; format: functional
Klebsiella pneumoniae [21] = experiment: Antimicrobial activity against Klebsiella pneumoniae GZ64 expressing IMP-4, ompK35/36 by CLSI method; format: functional
Klebsiella pneumoniae [22] = experiment: Antimicrobial activity against carbapenem-resistant Klebsiella pneumoniae PU5 deficient in SHV-12, DHA-1, aac(6')-Ib-cr, ompK35/36 by CLSI method; format: functional
Enterobacter cloacae [23] = experiment: Antimicrobial activity against carbapenem-resistant Enterobacter cloacae NJ88 deficient in CTX-M-14, ompC/F by CLSI method; format: functional
Escherichia coli [24] = experiment: Antimicrobial activity against carbapenem-resistant Escherichia coli HX74 deficient in TEM-1, CTX-M-14, CTX-M-3, aac(6')-Ibcr, ompC/F by CLSI method; format: functional
Escherichia coli [25] = experiment: Antimicrobial activity against carbapenem-resistant Escherichia coli ZJ86 expressing KPC-2, TEM-1 with ompC loss by CLSI method
Klebsiella pneumoniae [26] = experiment: Antimicrobial activity against Klebsiella pneumoniae WH77 expressing IMP-4, TEM-1, SHV-14, CTX-M-3, qnrS1 by CLSI method; format: functional
Klebsiella pneumoniae [27] = experiment: Antimicrobial activity against Klebsiella pneumoniae CY1T expressing SHV-11, DHA-1 by CLSI method; format: functional
Escherichia coli [28] = experiment: Antimicrobial activity against Escherichia coli C600 transconjugant WH76T expressing IMP-4, TEM-1, CTX-M-3, qnrS1 by CLSI method
Klebsiella pneumoniae [29] = experiment: Antimicrobial activity against carbapenem-resistant Klebsiella pneumoniae CY1 deficient in SHV-11, DHA-1, ompK35/36 by CLSI method; format: functional
Klebsiella pneumoniae [30] = experiment: Antimicrobial activity against Klebsiella pneumoniae ZJ18T expressing KPC-2, DHA-1 by CLSI method; format: functional
Enterobacter cloacae [31] = experiment: Antimicrobial activity against carbapenem-resistant Enterobacter cloacae NJ90 deficient in CTX-M-14, ompC/F by CLSI method; format: functional
Klebsiella pneumoniae [32] = experiment: Antimicrobial activity against Klebsiella pneumoniae FZ47T expressing IMP-8, TEM-1, CTX-M-14, qnrB2, aac(6')-Ib by CLSI method; format: functional
Klebsiella pneumoniae [33] = experiment: Antimicrobial activity against Klebsiella pneumoniae ZJ68T expressing CTX-M-15 by CLSI method; format: functional
Klebsiella pneumoniae [34] = experiment: Antimicrobial activity against carbapenem-resistant Klebsiella pneumoniae GZ84 deficient in SHV-11, aac(6')-Ib-cr, ompK35 by CLSI method; format: functional
Klebsiella pneumoniae [35] = experiment: Antimicrobial activity against carbapenem-resistant Klebsiella pneumoniae SZ61 deficient in TEM-1, SHV-1a, CMY-2, ompK35/36 by CLSI method; format: functional
Enterobacter cloacae [36] = experiment: Antimicrobial activity against carbapenem-resistant Enterobacter cloacae GX24 deficient in TEM-1, DHA-1, aac(6')-Ib, ompC by CLSI method; format: functional
Escherichia coli [37] = experiment: Antimicrobial activity against Escherichia coli C600 by CLSI method; format: functional
Klebsiella aerogenes [38] = experiment: Antimicrobial activity against carbapenem-resistant Enterobacter aerogenes WH85 deficient in TEM-1, CTX-M-3, ompC/F by CLSI method; format: functional
Escherichia coli [39] = experiment: Antimicrobial activity against Escherichia coli PU102T expressing TEM-1, CTX-M-14, CMY-2 by CLSI method; format: functional
Enterobacter cloacae [40] = experiment: Antimicrobial activity against carbapenem-resistant Enterobacter cloacae SZ92 deficient in IMP-4, TEM-1, CTX-M-14, DHA-1, qnrB10/B4-like, aac(6')-Ib, ompC by CLSI method; format: functional
Klebsiella pneumoniae [41] = experiment: Antimicrobial activity against Klebsiella pneumoniae PU104T expressing TEM-1, CTX-M-15 by CLSI method; format: functional

C[C@@H](O)[C@H]1C(=O)N2C(C(=O)O)=C(S[C@@H]3CN[C@H](C(=O)Nc4cccc(C(=O)O)c4)C3)[C@H](C)[C@H]12
MIC (Enterobacter cloacae [1]): 128 µg/mL (≈ 269 µM)
MIC (Escherichia coli [2]): 0.008 µg/mL (≈ 0.0168 µM)
MIC (Escherichia coli [3]): 0.008 µg/mL (≈ 0.0168 µM)
MIC (Escherichia coli [4]): 4 µg/mL (≈ 8.41 µM)
MIC (Citrobacter freundii): 8 µg/mL (≈ 16.8 µM)
MIC (Klebsiella pneumoniae [5]): 4 µg/mL (≈ 8.41 µM)
MIC (Enterobacter cloacae [6]): 128 µg/mL (≈ 269 µM)
MIC (Klebsiella aerogenes [7]): 0.032 µg/mL (≈ 0.0673 µM)
MIC (Escherichia coli [8]): 0.064 µg/mL (≈ 0.135 µM)
MIC (Escherichia coli [9]): 16 µg/mL (≈ 33.6 µM)
MIC (Escherichia coli [10]): 16 µg/mL (≈ 33.6 µM)
MIC (Klebsiella pneumoniae [11]): 8 µg/mL (≈ 16.8 µM)
MIC (Klebsiella pneumoniae [12]): 16 µg/mL (≈ 33.6 µM)
MIC (Klebsiella pneumoniae [13]): 16 µg/mL (≈ 33.6 µM)
MIC (Escherichia coli [14]): 0.25 µg/mL (≈ 0.526 µM)
MIC (Escherichia coli [15]): 16 µg/mL (≈ 33.6 µM)
MIC (Klebsiella pneumoniae [16]): 32 µg/mL (≈ 67.3 µM)
MIC (Klebsiella pneumoniae [17]): 4 µg/mL (≈ 8.41 µM)
MIC (Klebsiella pneumoniae [18]): 64 µg/mL (≈ 135 µM)
MIC (Klebsiella pneumoniae [19]): 64 µg/mL (≈ 135 µM)
MIC (Escherichia coli [20]): 128 µg/mL (≈ 269 µM)
MIC (Klebsiella pneumoniae [21]): 32 µg/mL (≈ 67.3 µM)
MIC (Klebsiella pneumoniae [22]): 64 µg/mL (≈ 135 µM)
MIC (Enterobacter cloacae [23]): 128 µg/mL (≈ 269 µM)
MIC (Escherichia coli [24]): 16 µg/mL (≈ 33.6 µM)
MIC (Escherichia coli [25]): 32 µg/mL (≈ 67.3 µM)
MIC (Klebsiella pneumoniae [26]): 4 µg/mL (≈ 8.41 µM)
MIC (Klebsiella pneumoniae [27]): 0.008 µg/mL (≈ 0.0168 µM)
MIC (Escherichia coli [28]): 2 µg/mL (≈ 4.21 µM)
MIC (Klebsiella pneumoniae [29]): 32 µg/mL (≈ 67.3 µM)
MIC (Klebsiella pneumoniae [30]): 2 µg/mL (≈ 4.21 µM)
MIC (Enterobacter cloacae [31]): 128 µg/mL (≈ 269 µM)
MIC (Klebsiella pneumoniae [32]): 4 µg/mL (≈ 8.41 µM)
MIC (Klebsiella pneumoniae [33]): 0.064 µg/mL (≈ 0.135 µM)
MIC (Klebsiella pneumoniae [34]): 8 µg/mL (≈ 16.8 µM)
MIC (Klebsiella pneumoniae [35]): 64 µg/mL (≈ 135 µM)
MIC (Enterobacter cloacae [36]): 16 µg/mL (≈ 33.6 µM)
MIC (Escherichia coli [37]): 0.008 µg/mL (≈ 0.0168 µM)
MIC (Klebsiella aerogenes [38]): 16 µg/mL (≈ 33.6 µM)
MIC (Escherichia coli [39]): 0.25 µg/mL (≈ 0.526 µM)
MIC (Enterobacter cloacae [40]): 32 µg/mL (≈ 67.3 µM)
MIC (Klebsiella pneumoniae [41]): 0.016 µg/mL (≈ 0.0336 µM)

C[C@@H](O)[C@H]1C(=O)N2C(C(=O)O)=C(SCCNC=N)C[C@H]12 [IMIPENEM ANHYDROUS]
MIC (Enterobacter cloacae [1]): 16 µg/mL (≈ 53.4 µM)
MIC (Escherichia coli [2]): 0.25 µg/mL (≈ 0.835 µM)
MIC (Escherichia coli [3]): 0.5 µg/mL (≈ 1.67 µM)
MIC (Escherichia coli [4]): 4 µg/mL (≈ 13.4 µM)
MIC (Citrobacter freundii): 8 µg/mL (≈ 26.7 µM)
MIC (Klebsiella pneumoniae [5]): 8 µg/mL (≈ 26.7 µM)
MIC (Enterobacter cloacae [6]): 16 µg/mL (≈ 53.4 µM)
MIC (Klebsiella aerogenes [7]): 0.5 µg/mL (≈ 1.67 µM)
MIC (Escherichia coli [8]): 0.5 µg/mL (≈ 1.67 µM)
MIC (Escherichia coli [9]): 8 µg/mL (≈ 26.7 µM)
MIC (Escherichia coli [10]): 8 µg/mL (≈ 26.7 µM)
MIC (Klebsiella pneumoniae [11]): 16 µg/mL (≈ 53.4 µM)
MIC (Klebsiella pneumoniae [12]): 16 µg/mL (≈ 53.4 µM)
MIC (Klebsiella pneumoniae [13]): 16 µg/mL (≈ 53.4 µM)
MIC (Escherichia coli [14]): 0.25 µg/mL (≈ 0.835 µM)
MIC (Escherichia coli [15]): 8 µg/mL (≈ 26.7 µM)
MIC (Klebsiella pneumoniae [16]): 16 µg/mL (≈ 53.4 µM)
MIC (Klebsiella pneumoniae [17]): 8 µg/mL (≈ 26.7 µM)
MIC (Klebsiella pneumoniae [18]): 8 µg/mL (≈ 26.7 µM)
MIC (Klebsiella pneumoniae [19]): 32 µg/mL (≈ 107 µM)
MIC (Escherichia coli [20]): 32 µg/mL (≈ 107 µM)
MIC (Klebsiella pneumoniae [21]): 16 µg/mL (≈ 53.4 µM)
MIC (Klebsiella pneumoniae [22]): 16 µg/mL (≈ 53.4 µM)
MIC (Enterobacter cloacae [23]): 16 µg/mL (≈ 53.4 µM)
MIC (Escherichia coli [24]): 4 µg/mL (≈ 13.4 µM)
MIC (Escherichia coli [25]): 8 µg/mL (≈ 26.7 µM)
MIC (Klebsiella pneumoniae [26]): 2 µg/mL (≈ 6.68 µM)
MIC (Klebsiella pneumoniae [27]): 0.25 µg/mL (≈ 0.835 µM)
MIC (Escherichia coli [28]): 4 µg/mL (≈ 13.4 µM)
MIC (Klebsiella pneumoniae [29]): 32 µg/mL (≈ 107 µM)
MIC (Klebsiella pneumoniae [30]): 2 µg/mL (≈ 6.68 µM)
MIC (Enterobacter cloacae [31]): 16 µg/mL (≈ 53.4 µM)
MIC (Klebsiella pneumoniae [32]): 4 µg/mL (≈ 13.4 µM)
MIC (Klebsiella pneumoniae [33]): 0.5 µg/mL (≈ 1.67 µM)
MIC (Klebsiella pneumoniae [34]): 1 µg/mL (≈ 3.34 µM)
MIC (Klebsiella pneumoniae [35]): 16 µg/mL (≈ 53.4 µM)
MIC (Enterobacter cloacae [36]): 4 µg/mL (≈ 13.4 µM)
MIC (Klebsiella aerogenes [38]): 8 µg/mL (≈ 26.7 µM)
MIC (Enterobacter cloacae [40]): 8 µg/mL (≈ 26.7 µM)
MIC (Klebsiella pneumoniae [41]): 0.25 µg/mL (≈ 0.835 µM)

Reference: ChEMBL document CHEMBL1212738, “Phenotypic and genotypic characterization of Enterobacteriaceae with decreased susceptibility to carbapenems: results from large hospital-based surveillance studies in China” (2010)
